The values below come from ChEMBL document CHEMBL2202956, “(±)-Tylopilusins, diphenolic metabolites from the fruiting bodies of Tylopilus eximius” (J Nat Prod, 2012).

The subject of series [1] is Staphylococcus aureus. Briefly: Toxicity in methicillin-resistant Staphylococcus aureus assessed as growth inhibition at 20 ug/6mm disk after 68 hrs. It is filed as organism-based. The note with it: in vitro.
In series [2] the test system is Staphylococcus aureus. Briefly: Inhibition of yellow pigment production in methicillin-resistant Staphylococcus aureus at 20 ug/6mm disk after 68 hrs by paper disk method. The series is classed as functional.

For `COC(=O)[C@@]1(O)C(c2ccc(O)cc2)=C(O)C(=O)[C@@]1(OC)c1ccc(O)cc1`, the Activity result in series [1] is reported as “Non-toxic”. Also, in series [2], the “inhibition zone (IZ)” value is listed as 8 mm.

Turning to `COC(=O)[C@]1(O)C(c2ccc(O)cc2)=C(O)C(=O)[C@]1(OC)c1ccc(O)cc1`, in series [1], the Activity result is on record as “Non-toxic”. For the same molecule, in series [2], the “inhibition zone (IZ)” value came to 9 mm.

Regarding `COC(=O)[C@@]1(O)C(c2ccc(O)cc2)=C(O)C(=O)[C@@]1(O)c1ccc(O)cc1`, the Activity entry in series [1] is “Non-toxic”. The “inhibition zone (IZ)” value in series [2] amounted to 7 mm.

Take `COC(=O)[C@]1(O)C(c2ccc(O)cc2)=C(O)C(=O)[C@]1(O)c1ccc(O)cc1`: the Activity entry in series [1] is “Non-toxic”. Also, in series [2], the “inhibition zone (IZ)” value came out at 7 mm.
